Like-named read-outs stand apart in the source and are kept apart here.

For test [1], the system named is MDA-MB-231 breast cancer cell line. Description: Inhibition of cell growth in MDA-MB-231 breast cancer cell line. Type of test: cell-based, human.
For test [2], the system named is SK-OV-3 ovarian cancer cell line. Nature of the test: Inhibition of cell growth in SK-OV-3 ovarian cancer cell line. Type of test: cell-based, human.
Test [3] concerns the target cIAP1-BIR3 (residues 253-363) (Homo sapiens (Human), UniProt Q13490). Nature of the test: Fluorescence polarization (FP) based competitive binding assay, cIAP1-BIR3. Particulars: Smac-2F probe, read-out: Binding Affinities IC50 (nM) cIAP1 Protein. The method, then: (§1) For cIAP-1 BIR3 and cIAP-2 BIR3 assays, a fluorescently labeled Smac mimetic (Smac-2F) was used as the fluorescent probe. The Kd values of Smac-2F to cIAP-1 BIR3 and cIAP-2 BIR3 were determined by monitoring the total fluorescence polarization of mixtures composed with the fluorescent probe at a fixed concentration and proteins with increasing concentrations up to full saturation. Fluorescence polarization values were measured using the Infinite M-1000 plate reader (Tecan U.S., Research Triangle Park, N.C.) in Microfluor 2 96-well, black, round-bottom plates (Thermo Scientific). To each well, 1 nM of SMAC-2F and increasing concentrations of protein were added to a final volume of 125 μl in the assay buffer (100 mM potassium phosphate, pH 7.5, 100 μg/ml bovine γ-globulin, 0.02% sodium azide, Invitrogen, with 4% DMSO). Plates were incubated at room temperature for 1-2 hours and mixed with gentle shaking to assure equilibrium. […] Equilibrium dissociation constants (Kd) were then calculated by fitting the sigmoidal dose-dependent FP increases as a function of protein concentrations using Graphpad Prism 5.0 software (Graphpad Software, San Diego, Calif.).
(§2) Mixtures of 5 μl of the tested compounds in DMSO and 120 μl of preincubated protein/tracer complex in the assay buffer (100 mM potassium phosphate, pH 7.5, 100 μg/ml bovine γ-globulin, 0.02% sodium azide, Invitrogen) were added into assay plates and incubated at room temperature for 2 hours with gentle shaking. Final concentrations of proteins and probes were 3 nM and 1 nM, 5 nM and 1 nM for assays for cIAP-1 BIR3 and cIAP-2 BIR3, respectively. […] FP values were measured as described above. IC50 values were determined by nonlinear regression fitting of the competition curves. The Ki values of competitive inhibitors were calculated using the derived equation described previously, based upon the measured IC50 values, the Kd values of the probe to different proteins, and the concentrations of the proteins and probes in the competitive assays.
A general note: In fluorescence polarisation assays a small probe gives low polarisation when free and higher when bound to something large.

Test [4] has as its target XIAP linker-BIR2-BIR3 (residues 120-356) (Homo sapiens (Human), UniProt P98170). Description: Fluorescence polarization (FP) based competitive binding assay, XIAP linker-BIR2-BIR3. Conditions: read-out: Binding Affinities IC50 (nM) XIAP Protein. The method, then:
as §1, §2
The FP-based assay for XIAP linker-BIR2-BIR3 protein was performed with the same procedures. In this assay, a bivalent fluorescently tagged peptidic Smac mimetic (Smac-1F) was used as the fluorescent probe whose Kd value to XIAP linker-BIR2-BIR3 was determined similarly through the saturation experiments. 0.01% of Triton X-100 was added in the assay buffer to achieve stable fluorescence and polarization value of the dimeric fluorescent probe. Final protein and probe concentrations utilized in the competitive assay were 3 nM and 1 nM, respectively.

For test [5], the target named is cIAP-2 BIR3 (residues 238-349) (Homo sapiens (Human), UniProt Q13489). Nature of the test: Fluorescence polarization (FP) based competitive binding assay, cIAP-2 BIR3. Conditions: read-out: Binding Affinities IC50 (nM) cIAP2 Protein. The method, then: as §1, §2
The mark [6] stands for this setting: MDA-MB-231 breast cancer cell line.
[7] abbreviates: SK-OV-3 ovarian cancer cell line.
[8] abbreviates: Homo sapiens, MDA-MB-231, MDA-MB-231 breast cancer cell line.
The mark [9] stands for this setting: Homo sapiens, SK-OV-3, SK-OV-3 ovarian cancer cell line.
Where [10] appears, read: Homo sapiens, MDA-MB-231 breast cancer cell line.
[11] abbreviates: Homo sapiens, SK-OV-3 ovarian cancer cell line.

For `CN[C@@H](C)C(=O)N[C@H]1CN(C(=O)Nc2ccc(NC(=O)N3CC[C@H]4CC[C@@H](C(=O)N[C@@H]5C[C@@H]5c5ccccc5)N4C(=O)[C@@H](NC(=O)[C@H](C)NC)C3)cc2)CC[C@H]2CC[C@@H](C(=O)N[C@@H]3C[C@@H]3c3ccccc3)N2C1=O` (stereo in doubt) [Example 26], the IC50 in test [1] (setting [6]) and in test [2] (setting [7]) was < 1000 nM each time.
Turning to `CN[C@@H](C)C(=O)N[C@H]1CN(C(=O)Nc2ccc(-c3ccc(NC(=O)N4CC[C@H]5CC[C@@H](C(=O)NC(c6ccccc6)c6ccccc6)N5C(=O)[C@@H](NC(=O)[C@H](C)NC)C4)c(C)c3)cc2C)CC[C@H]2CCC(C(=O)NC(c3ccccc3)c3ccccc3)N2C1=O` (some centres unmarked) [Example 15], the IC50 in test [1] (setting [8]) and in test [2] (setting [9]) was < 1000 nM each time.
For `CN[C@@H](C)C(=O)N[C@H]1CN(C(=S)Nc2ccc(NC(=S)N3CC[C@H]4CC[C@@H](C(=O)NC(c5ccccc5)c5ccccc5)N4C(=O)[C@@H](NC(=O)[C@H](C)NC)C3)cc2)CC[C@H]2CCC(C(=O)NC(c3ccccc3)c3ccccc3)N2C1=O` (some centres unmarked) [Example 16], the IC50 in test [1] (setting [8]) is < 100 nM.
As for `CN[C@@H](C)C(=O)N[C@H]1CN(C(=O)Nc2ccc(CCc3ccc(NC(=O)N4CC[C@H]5CC[C@@H](C(=O)NC(c6ccccc6)c6ccccc6)N5C(=O)[C@@H](NC(=O)[C@H](C)NC)C4)cc3)cc2)CC[C@H]2CCC(C(=O)NC(c3ccccc3)c3ccccc3)N2C1=O` (some centres unmarked) [Example 17], the IC50 in test [1] (setting [8]) was < 100 nM.
On the same count and under the same terms, with `CN[C@@H](C)C(=O)N[C@H]1CN(C(=S)Nc2ccc(Cc3ccc(NC(=S)N4CC[C@H]5CC[C@@H](C(=O)NC(c6ccccc6)c6ccccc6)N5C(=O)[C@@H](NC(=O)[C@H](C)NC)C4)cc3)cc2)CC[C@H]2CCC(C(=O)NC(c3ccccc3)c3ccccc3)N2C1=O` (some centres unmarked) [Example 18] the figure was < 100 nM.
On to `CNCC(=O)N[C@H]1CN(C(=O)N2CCN(C(=O)N3CC[C@H]4CC[C@@H](C(=O)NC(c5ccccc5)c5ccccc5)N4C(=O)[C@@H](NC(=O)[C@H](C)NC)C3)CC2)CC[C@H]2CCC(C(=O)NC(c3ccccc3)c3ccccc3)N2C1=O` (some centres unmarked) [Example 20], for which the IC50 in test [1] (setting [8]) and in test [2] (setting [9]) was < 10000 nM in each case.
As to `CN[C@@H](C)C(=O)N[C@H]1CN(C(=O)Oc2ccc(C(C)(C)c3ccc(OC(=O)N4CC[C@H]5CC[C@@H](C(=O)NC(c6ccccc6)c6ccccc6)N5C(=O)[C@@H](NC(=O)[C@H](C)NC)C4)cc3)cc2)CC[C@H]2CCC(C(=O)NC(c3ccccc3)c3ccccc3)N2C1=O` (some centres unmarked) [Example 22], the IC50 is < 100 nM in test [1] (setting [8]) and < 1000 nM in test [2] (setting [9]).
For the molecule `CN[C@@H](C)C(=O)N[C@H]1CN(S(=O)(=O)c2cccc(S(=O)(=O)N3CC[C@H]4CC[C@@H](C(=O)NC(c5ccccc5)c5ccccc5)N4C(=O)[C@@H](NC(=O)[C@H](C)NC)C3)c2)CC[C@H]2CCC(C(=O)NC(c3ccccc3)c3ccccc3)N2C1=O` (some centres unmarked) [Example 23], the 50% inhibitory concentration (IC50) in test [1] (setting [8]) and in test [2] (setting [9]) was < 100 nM throughout.
With `CN[C@@H](C)C(=O)N[C@H]1CN(C(=O)Nc2ccc(NC(=O)N3CC[C@H]4CC[C@@H](C(=O)N[C@@H]5C[C@@H]5c5ccccc5)N4C(=O)[C@@H](NC(=O)[C@H](C)NC)C3)cc2)CC[C@H]2CC[C@@H](C(=O)N[C@@H]3C[C@@H]3c3ccccc3)N2C1=O` [Example 25], the IC50 in test [1] (setting [8]) and in test [2] (setting [9]) was < 1000 nM each time.
`CN[C@@H](C)C(=O)N[C@H]1CN(C(=O)Nc2ccc(NC(=O)N3CC[C@H]4CC[C@@H](C(=O)N[C@H]5C[C@@H]5c5ccccc5F)N4C(=O)[C@@H](NC(=O)[C@H](C)NC)C3)cc2)CC[C@H]2CC[C@@H](C(=O)N[C@H]3C[C@@H]3c3ccccc3F)N2C1=O` [Example 27]: the IC50 in test [1] (setting [8]) and in test [2] (setting [9]) was < 5000 nM throughout.
For the molecule `CN[C@@H](C)C(=O)N[C@H]1CN(C(=O)Nc2ccc(NC(=O)N3CC[C@H]4CC[C@@H](C(=O)N[C@@H]5C[C@H]5c5ccccc5)N4C(=O)[C@@H](NC(=O)[C@H](C)NC)C3)cc2)CC[C@H]2CC[C@@H](C(=O)N[C@@H]3C[C@H]3c3ccccc3)N2C1=O` [Example 30], the IC50 in test [1] (setting [8]) and in test [2] (setting [9]) was < 10000 nM in each case.
Regarding `CN[C@@H](C)C(=O)N[C@H]1CN(C(=O)Nc2ccc(NC(=O)N3CC[C@H]4CC[C@@H](C(=O)N[C@H]5C[C@@H]5c5ccccc5)N4C(=O)[C@@H](NC(=O)[C@H](C)NC)C3)cc2)CC[C@H]2CC[C@@H](C(=O)N[C@H]3C[C@@H]3c3ccccc3)N2C1=O` [Example 31], the IC50 in test [1] (setting [8]) and in test [2] (setting [9]) was < 1000 nM throughout.
`CN[C@@H](C)C(=O)N[C@H]1CN(C(=O)Nc2ccc(NC(=O)N3CC[C@H]4CC[C@@H](C(=O)N[C@H]5C[C@@H]5c5ccc(C(F)(F)F)cc5)N4C(=O)[C@@H](NC(=O)[C@H](C)NC)C3)cc2)CC[C@H]2CC[C@@H](C(=O)N[C@H]3C[C@@H]3c3ccc(C(F)(F)F)cc3)N2C1=O` [Example 35]: the IC50 in test [1] (setting [8]) and in test [2] (setting [9]) was < 10000 nM in each case.
With `CN[C@@H](C)C(=O)N[C@H]1CN(C(=O)NCc2cccc(CNC(=O)N3CC[C@H]4CC[C@@H](C(=O)N[C@H]5C[C@@H]5c5ccccc5)N4C(=O)[C@@H](NC(=O)[C@H](C)NC)C3)c2)CC[C@H]2CCC(C(=O)N[C@H]3C[C@@H]3c3ccccc3)N2C1=O` (some centres unmarked) [Example 38], the IC50 in test [1] (setting [8]) and in test [2] (setting [9]) was < 10000 nM each time.
In the case of `CN[C@@H](C)C(=O)N[C@H]1CN(C(=O)NCCCCCCNC(=O)N2CC[C@H]3CC[C@@H](C(=O)N[C@H]4CCCC[C@@H]4c4ccccc4)N3C(=O)[C@@H](NC(=O)[C@H](C)NC)C2)CC[C@H]2CCC(C(=O)N[C@H]3CCCC[C@@H]3c3ccccc3)N2C1=O` (some centres unmarked) [Example 39], the IC50 in test [1] (setting [6]) and in test [2] (setting [7]) was < 1000 nM throughout.
For the molecule `CN[C@@H](C)C(=O)N[C@H]1CN(C(=O)NCCCCCCNC(=O)N2CC[C@H]3CC[C@@H](C(=O)NC4Cc5ccccc5C4)N3C(=O)[C@@H](NC(=O)[C@H](C)NC)C2)CC[C@H]2CCC(C(=O)NC3Cc4ccccc4C3)N2C1=O` (some centres unmarked) [Example 45], the IC50 in test [1] (setting [8]) and in test [2] (setting [9]) was < 1000 nM in each case.
For `CN[C@@H](C)C(=O)N[C@H]1CN(C(=O)NCCCCCCNC(=O)N2CC[C@H]3CC[C@@H](C(=O)NCCc4ccccc4)N3C(=O)[C@@H](NC(=O)[C@H](C)NC)C2)CC[C@H]2CCC(C(=O)NCCc3ccccc3)N2C1=O` (some centres unmarked) [Example 46], the IC50 in test [1] (setting [8]) and in test [2] (setting [9]) was < 1000 nM each time.
With `CN[C@@H](C)C(=O)N[C@H]1CN(C(=O)NCCCCCCNC(=O)N2CC[C@H]3CC[C@@H](C(=O)N[C@H]4CC[C@@H]4c4ccccc4)N3C(=O)[C@@H](NC(=O)[C@H](C)NC)C2)CC[C@H]2CCC(C(=O)N[C@H]3CC[C@@H]3c3ccccc3)N2C1=O` (some centres unmarked) [Example 47], the IC50 in test [1] (setting [10]) and in test [2] (setting [11]) was < 1000 nM throughout.
For the molecule `CN[C@@H](C)C(=O)N[C@H]1CN(C(=O)NCCCCCCNC(=O)N2CC[C@H]3CC[C@@H](C(=O)N[C@H]4C[C@H](c5ccccc5)C4)N3C(=O)[C@@H](NC(=O)[C@H](C)NC)C2)CC[C@H]2CCC(C(=O)N[C@H]3C[C@H](c4ccccc4)C3)N2C1=O` (some centres unmarked) [Example 48], the IC50 in test [1] (setting [10]) and in test [2] (setting [11]) was < 10000 nM each time.
`CN[C@@H](C)C(=O)N[C@H]1CN(C(=O)NCCCCCCNC(=O)N2CC[C@H]3CC[C@@H](C(=O)N[C@H]4C[C@H](c5ccccc5)C4)N3C(=O)[C@@H](NC(=O)[C@H](C)NC)C2)CC[C@H]2CCC(C(=O)N[C@H]3C[C@H](c4ccccc4)C3)N2C1=O` (some centres unmarked) [Example 49]: the IC50 was < 1000 nM in test [3]; < 1000 nM in test [4]; < 5000 nM in test [5] (FP competitive assay, Smac-2F probe).
For `CN[C@@H](C)C(=O)N[C@H]1CN(C(=O)NCCCCCCNC(=O)N2CC[C@H]3CC[C@@H](C(=O)N[C@H]4C[C@@H](c5ccccc5)C4)N3C(=O)[C@@H](NC(=O)[C@H](C)NC)C2)CC[C@H]2CCC(C(=O)N[C@H]3C[C@@H](c4ccccc4)C3)N2C1=O` (some centres unmarked) [Example 50], the IC50 in test [3], in test [4] and in test [5] was < 1000 nM each time.

Usually IC50 stands for the point on the concentration scale where inhibition reaches its midpoint.

The values above are taken from patent publication US8883771B2, “Bivalent inhibitors of IAP proteins and therapeutic methods using the same” (The Regents of the University of Michigan, priority 2012, dated 2014).
